According to US12070483B2, “Compositions and methods for treatment of acute lung injury” (THE TRUSTEES OF THE UNIVERSITY OF PENNSYLVANIA, priority 2018, dated 2024):

Experiments:
[1] = system: mice, intraperitoneal LPS; experiment: Intraperitoneal LPS (15 μg/g) model of ALI with systemic sepsis: survival; details: LPS 15 μg/g IP
Experimental: LPS (15 mg/g body wt) was given to all mice either by: FIG. 7A: intratracheal (IT) or FIG. 7B: intraperitoneal (IP) injection. PIP-2 in liposomes or placebo (liposomes alone) was administered intravenously (IV) 12 h after LPS (this is treatment time zero) and then at 12 or 24 h intervals for a total of 5 doses as indicated by the arrows. FIG. 7A: PIP-2 at 2 μg/g body wt; N=14 for each group. FIG. 7B: PIP-2 at 2 or 20 μg/g body wt.; Placebo group, n=8; PIP-2 2 mg group, n=7; PIP-2 20 mg group, n=10.
Anesthesized mice were administered LPS (either 5 or 15 μgig body weight) in 20 μl saline that was instilled into the lung through an endotracheal catheter placed at the level of the tracheal carina. […] PIP-2 in liposomes was suspended in 20 μl saline for IV or IT injection. For studies to evaluate the effect of PIP-2 at zero time, LPS administration was followed by liposomes±PIP-2 also given by IT instillation. For studies to evaluate the effect of PIP-2 administered at later times after LPS, the liposomes±PIP-2 were given by injection into a retinal artery. This shift in route of administration was used to minimize damage to the mouse trachea that could occur with repeated tracheostomy and lead to untoward effects on the lung. […] We gave the second dose of PIP-2 at 12 h to be certain of maximal coverage and then went to every 24 h for PIP-2 administration. For the model of sepsis, LPS (15 μg/g body wt.) in 20 μl saline was injected intraperitoneally and mice were treated with IV PIP-2 at either 2 or 20 μg/g body wt; note that the initial dose of PIP-2 for this sepsis model was IV, not IT. We used the same times of PIP-2 administration in the sepsis model as were used for the IT LPS model. After recovery from anesthesia, all mice were maintained in the vivarium with access ad lib to food and water.
We next evaluated the effect of PIP-2 in mice given LPS (15 μg LPS/g body wt.) by the intraperitoneal route as a model for ALI associated with systemic sepsis.

[2] = system: mechanically ventilated mice; experiment: Ventilation-induced lung injury (VILI); type: in vivo, mouse; details: PIP-2 2 ug/g in liposomes IT at start of 6 h mechanical ventilation
Experimental: FIG. 13: Effect of PIP-2 on ventilation-induced lung injury (VILI). Anesthetized mice were mechanically ventilated for 6 h with tidal volume 12 ml/Kg body weight with a respiratory rate 120/min, and 2 cm H2O positive end-expiratory pressure (PEEP). […] Control represents values for normal (non-ventilated) lungs. % Protection was calculated as in Table 1. Results are mean±SE for n=4. *P<0.05 for VILI+PIP vs VILI.

[3] = system: C57Bl/6 mice, LPS-mediated lung injury; experiment: Acute lung injury after intratracheal LPS (5 μg/g), lungs evaluated at 24 h; type: in vivo, mouse; details: for lung injury, peptide administered along with LPS (0 time): evaluated at 24 hours after LPS; for lung injury, peptide administered at 12-16 hours after LPS: sacrifice @ 24 hours
Experimental: The IT model of acute lung injury (ALI) as shown in Table 9 was used to test the effects of PIP-2. […] IV administration of PIP-2 was used to avoid a second ‘assault’ on the trachea. Mice were sacrificed at 24 hours and lungs were evaluated for injury as described in Table 9. Protection (%) against lung injury was calculated as [1−(injury with PIP-2−control)/(LPS alone−control)]. Results are mean±SE for n=4. *P<0.01 vs control. ^†P<0.01 vs no PIP, 24 hours.
To study the effect of PIP-2 administration on lung injury, mice were treated with LPS (5 μg/g body weight) given IT. […] PIP-2 (2 μg/g body weight in liposomes) was administered at 0, 12, or 16 h after LPS. We have shown previously that this dose of PIP-2 can inhibit lung aiPLA2 activity by ˜90% for at least 24 h. PIP-2 was given IT at time zero and IV at 12 or 16 h in order to avoid excessive damage to the trachea. Animals were sacrificed and lungs were examined at 24 h after LPS. All indices of lung injury, reflecting lung inflammation, alveolar-capillary barrier dysfunction, lung fluid accumulation, and tissue oxidative stress, were elevated in LPS-treated mice as compared to control (p<0.05). […] Since lung injury was present in lungs at 12 and 16 h after LPS, the normal values at 24 h in lungs from LPS treated mice given PIP-2 at 12 or 16 h can only mean that lungs were able to recover fully from their injury during the 8 to 12 h interval between the administration of PIP-2 and examination of the lungs.

ROS production in lung = experiment: Lung ROS production (DFF-DA fluorescence) after IT LPS; type: in vivo, mouse; details: PIP-2 with IT LPS 5 μg/g; 6, 12 and 24 h
Experimental: FIGS. 9A and 9B: PIP-2 inhibits the increased lung aiPLA2 activity and increased ROS generation after LPS administration. LPS (5 μg/g body weight) was administered by intratracheal (IT) instillation along with liposomes alone (labeled as LPS) or with PIP-2 in liposomes (labeled as +PIP-2). Control was liposomes alone without LPS (labeled as control). Mice were sacrificed at 6, 12, or 24 h after LPS and lungs were perfused in situ for 15 min with saline solution containing the fluorophore difluorofluoroscein diacetate (DFF-DA). Lungs then were homogenized and assayed for: FIG. 9A: aiPLA2 activity; FIG. 9B: fluorescence of the lung homogenate as an index of ROS production. Results are mean±SE for N=3 for A and N=4 for B. *P<0.05 vs. Control and +PIP-2 at the same time point; ΔP<0.05 vs. corresponding value at 6 h.
To determine lung ROS production after LPS treatment, intact mice were treated with LPS (5 μg/g)±PIP-2 (2 μg/g). Mice were anesthesized at 6, 12, or 24 h after treatment with LPS and lungs in situ were cleared of blood and then perfused for […] with saline solution containing the fluorophore DFF-DA that is hydrolyzed intracellularly to DFF. Lungs were then homogenized, and fluorescence of the homogenate was measured at Ex 495 nm, Em 525 nm. Lung fluorescence was expressed as AFU per minute of perfusion with normalization to the mouse body wt.

Prdx6 = molecular target: T1, Prdx6 (Mus musculus, UniProt O08709); details: PIP-2 2 μg/g in liposomes, for at least 24 h; shown previously; cited from earlier work
T1 construct: Lungs were harvested at intervals between 4 and 72 h after the PIP-2 administration, homogenized, and analyzed for Prdx6-PLA2 activity; from tissue; host or cells: mouse lung homogenate (wild type mice)
T1 sequence (O08709 1-224): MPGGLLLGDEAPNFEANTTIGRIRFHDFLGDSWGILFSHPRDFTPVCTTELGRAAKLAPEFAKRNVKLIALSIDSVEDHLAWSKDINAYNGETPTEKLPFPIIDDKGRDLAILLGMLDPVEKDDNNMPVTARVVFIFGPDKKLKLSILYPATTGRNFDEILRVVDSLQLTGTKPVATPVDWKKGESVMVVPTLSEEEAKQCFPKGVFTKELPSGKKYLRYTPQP

[4] = system: C57Bl/6 mice, LPS-mediated lung injury; experiment: Acute lung injury after intratracheal LPS (5 μg/g), lungs evaluated at 24 h; type: in vivo, mouse; details: LPS 5 μg/g IT, sacrifice at 24 hrs
[5] = LPS 5 μg/g IT, PIP-2 2 μg/g IV @12 hr, sacrifice at 24 hrs
[6] = LPS 5 μg/g IT, PIP-2 2 μg/g IV @16 h, sacrifice at 24 hrs
[7] = Control: PIP in liposomes IT, no LPS
[8] = Control: PIP in liposomes, no LPS
[9] = LPS 5 μg/g IT, PIP-4 2 μg/g IV @12 hr, sacrifice at 24 hrs
[10] = LPS 5 μg/g IT, PIP-4 2 μg/g IV @16 h, sacrifice at 24 hrs

For LHDFRHQIL (Inhibitory peptide.) [PIP-2], the mice fully recovered ([1]; PIP-2 2 μg/g IV) was 43%, the “survival at 36 h after LPS” value ([1]; PIP-2 2 μg/g IV, placebo 100% dead by 48 h) was 86% and the “long term survival rate” value ([1]; PIP-2 20 μg/g IV) was 70%. For the same sequence, the “effect on ventilation-induced lung injury” value [2] was “protected against lung injury”, the “# of cells” value ([3]; LPS 5 μg/g IT, PIP-2 2 μg/g IT @0 hrs, sacrifice at 24 hrs, control 0.95, LPS 8.67) was 0.92 ± 0.02 ×10^4/g wt and the “Wet/Dry lung weight ratio” value ([3]; LPS 5 μg/g IT, PIP-2 2 μg/g IT @0 hrs, sacrifice at 24 hrs, control 5.59, LPS 8.10) was 5.50 ± 0.04. For the same sequence, the Protein carbonyls ([3]; LPS 5 μg/g IT, PIP-2 2 μg/g IT @0 hrs, sacrifice at 24 hrs, control 5.6, LPS 16.9) was 5.4 ± 0.1 nmol/mg prot, the 8-Isoprostanes ([3]; LPS 5 μg/g IT, PIP-2 2 μg/g IT @0 hrs, sacrifice at 24 hrs, control 34, LPS 101) was 31 ± 2 pmol/mg prot and the protein ([3]; LPS 5 μg/g IT, PIP-2 2 μg/g IT @0 hrs, sacrifice at 24 hrs, control 75, LPS 164) was 71 mg protein/g wt. For the same sequence, the TBARS ([3]; LPS 5 μg/g IT, PIP-2 2 μg/g IT @0 hrs, sacrifice at 24 hrs, control 75, LPS 381) was 70 ± 2.1 pmol/mg prot, the 8-Isoprostanes [3, 5] was 38 ± 1 pmol/mg prot and the “# of cells” value [3, 5] was 1.45 ± 0.03 ×10^4/g wt. The Protein carbonyls [3, 5] was 6.4 ± 0.2 nmol/mg prot, the TBARS [3, 5] was 85 ± 5.2 pmol/mg prot and the “Wet/Dry lung weight ratio” value [3, 5] was 5.95 ± 0.02. The protein [3, 5] was 84 ± 1.2 mg protein/g wt, the 8-Isoprostanes [3, 6] was 40 ± 1 pmol/mg prot and the “# of cells” value [3, 6] was 1.43 ± 0.2 ×10^4/g wt. For the same sequence, the Protein carbonyls [3, 6] was 6.4 ± 0.3 nmol/mg prot, the TBARS [3, 6] was 89 ± 9.3 pmol/mg prot and the “Wet/Dry lung weight ratio” value [3, 6] was 6.19 ± 0.06. The protein [3, 6] was 82.0 ± 1.2 mg protein/g wt, the “protection against lung injury” value ([3]; PIP-2 at 12 or 16 hours after LPS, evaluated at 24 hours) was 85-95% and the “lung injury, peptide administered along with LPS (0 time)” value [3] was “completely prevented lung injury”. The “protection against lung injury” value ([3]; evaluated at 24 hr after IT LPS, PIP-2 at 0, 12 or 16 h after LPS) was greater than 75%, the “lung injury, peptide administered at 12-16 hours after LPS” value [3] was “prevents further injury” and the “ROS-generated fluorescence of lung after LPS” value (ROS production in lung) was “dramatic decrease”. For the same sequence, the “inhibition of lung aiPLA2 activity” value (Prdx6) was roughly 90%.

In the case of LYEIKHQIL (Inhibitory peptide.) [PIP-4], the 8-Isoprostanes [3, 7] is reported as 34 ± 1 pmol/mg prot, the Protein carbonyls [3, 7] is reported as 5.8 ± 0.2 nmol/mg prot and the TBARS [3, 7] is reported as 76 ± 2 pmol/mg prot. For the same sequence, the “# of cells” value [3, 8] was 0.96 ± 0.03 ×10^4/g wt, the “Wet/Dry lung weight ratio” value [3, 8] was 5.59 ± 0.02 and the protein [3, 8] was 78 ± 2 μg protein/g wt. For the same sequence, the “Wet/Dry lung weight ratio” value ([3]; LPS 5 μg/g IT, PIP-4 2 μg/g IT @0 hrs, sacrifice at 24 hrs, LPS alone 7.40) was 6.1 ± 0.01, the “# of cells” value ([3]; LPS 5 μg/g IT, PIP-4 2 μg/g IT @0 hrs, sacrifice at 24 hrs, LPS alone 8.5) was 0.95 ± 0.02 ×10^4/g wt and the Protein carbonyls ([3]; LPS 5 μg/g IT, PIP-4 2 μg/g IT @0 hrs, sacrifice at 24 hrs, LPS alone 16.9) was 5.9 ± 0.3 nmol/mg prot. The 8-Isoprostanes ([3]; LPS 5 μg/g IT, PIP-4 2 μg/g IT @0 hrs, sacrifice at 24 hrs, LPS alone printed 1.02 ± 3) was 32 ± 2 pmol/mg prot, the “# of cells” value [3, 9] was 1.46 ± 0.25 ×10^4/g wt and the Protein carbonyls [3, 9] was 6.4 ± 0.1 nmol/mg prot. The protein [3, 9] was 85 ± 2 μg protein/g wt, the “# of cells” value [3, 10] was 1.44 ± 0.12 ×10^4/g wt and the Protein carbonyls [3, 10] was 6.4 ± 0.1 nmol/mg prot. For the same sequence, the TBARS [3, 10] was 85 ± 2 pmol/mg prot, the “Wet/Dry lung weight ratio” value [3, 10] was 6.12 ± 0.09 and the protein [3, 10] was 83 ± 1 μg protein/g wt. For the same sequence, the “lung injury, peptide administered along with LPS (0 time)” value [3] was “prevents lung injury”, the “lung injury, peptide administered at 12-16 hours after LPS” value [3] was “prevents further injury” and the protein ([4]; PIP-4 2 μg/g IT @0 hrs, LPS alone 166) was 77 ± 3 μg protein/g wt. For the same sequence, the TBARS ([4]; PIP-4 2 μg/g IT @0 hrs, LPS alone 374) was 78 ± 4 pmol/mg prot, the TBARS ([4]; PIP-4 2 μg/g IV @12 hr) was 84 ± 2 pmol/mg prot and the “Wet/Dry lung weight ratio” value ([4]; PIP-4 2 μg/g IV @12 hr) was 5.94 ± 0.05.
